Results as given in US20060128605A1, “Preventives/remedies for snore or respiratory disturbances during sleep” (AJINOMOTO CO. INC, priority 2003, published 2006).

How the values were obtained:
[1] = test system: snoring of the test recipient during sleep; experiment: snoring evaluation by a family member after tablets taken before bedtime; format: in vivo, human; conditions: Experiment 1
Method: (§1) In addition, sleep apnea and arterial blood oxygen saturation (SpO2) were evaluated using a sleep tester LT-200 manufactured by FUKUDA DENSHI Co., Ltd. (Japan). […] The test recipient was completely free of regular medication, and had no habit of taking nutritional supplements or nutritional supports. […] The test recipient took an appropriate number (2-4) of the glycine tablets or the control tablets, and interviewed a family member the next morning as to the presence or absence of snoring and the level thereof, without informing the family member of the kind of the tablets and whether they took the tablets.
The presence or absence of snoring during sleep was evaluated the next morning by a family member into three levels of minus (−; snoring was not heard or like sleep breath), plus (+; medium level snoring), two plus (++; extremely noisy and severe snoring). The presence or absence of snoring when the glycine tablets and control tablets were taken before bedtime, and nothing was taken before bedtime was counted.

[2] = test system: male adults having sleep apnea syndrome; conditions: glycine 3 g 1 hour before sleep
Method: For confirmation of the effect of glycine on respiratory disorders during sleep, a double blind crossover test was performed with 10 male adults having sleep apnea syndrome as evidenced by more than 5 of the following AHI (apnea hypopnea index per 1 hour). Glycine (3 g) was administered 1 hour before sleep and, as the placebo, maltose adjusted to an indistinguishable taste was used.
Sleep polygraph data such as electroencephalogram, electromyogram, arterial blood oxygen saturation, and the like during sleep were measured using the Alice system manufactured by Respironics Co., Ltd. (USA). The air flow of the mouth-nose part was measured, and hypopnea was defined to mean a state where a decrease to not more than 50% requires not less than 10 second to recover to not less than 60%. Furthermore, a decrease in the arterial blood oxygen saturation by not less than 3% associated with hypopnea was taken as apnea. The total of the incidents of apnea and hypopnea per 1 hour was taken as an apnea hypopnea index (AHI) and used as a severity index of respiratory disorder during sleep.

[3] = test system: sleep apnea and SpO2 decrease during sleep; conditions: Experiment 3, glycine tablets (4 tablets) before bedtime
Method: as §1
The arterial blood oxygen saturation (SpO2) and air flow in the mouth-nose during sleep were measured using a sleep tester LT-200 manufactured by FUKUDA DENSHI Co., Ltd. The arterial blood oxygen saturation (SpO2) was measured using a sensor attached to the tip of the second finger of the left hand, and a decrease in the arterial blood oxygen saturation (SpO2) to not more than 93% which lasted for not less than 10 seconds was taken as SpO2 decrease. The number of SpO2 decrease per one day and per one hour and the minimum SpO2 of one day were determined. The air flow in the mouth-nose part was measured by a thermocapsule method, and a decrease in the flow in the mouth-nose part to not more than 50% which lasted for not less than 10 sec was defined as hypopnea. The occurrence of SpO2 decrease along with hypopnea was counted as apnea and the number of apnea per one day and per one hour was determined. Simultaneously, tracheal sounds during sleep were picked up through a mike set near laryngeal prominence.
The sleep apnea suppressing effect of glycine was evaluated. […] Tracheal sounds during sleep, which is considered to reflect the snoring sound, were simultaneously recorded.

sleep apnea syndrome = conditions: animal experiments using rats; cited from earlier work
[4] = 2 glycine tablets (glycine 490 mg) before bedtime, 9 days of observation
[5] = 4 glycine tablets (glycine 980 mg) before bedtime, 8 days of observation
[6] = SpO2 not more than 93% for not less than 10 seconds

Q: With `NCC(=O)O` [glycine] as the compound, how does the “snoring evaluation results ++, number of days (severe snoring)” value [1, 4] read?
A: 2 days

Q: What about the “snoring evaluation results ++, percentage of total observation days” value [1, 4] of the same compound?
A: (22%)

Q: And the “snoring evaluation results +, number of days (medium level snoring)” value [1, 4]?
A: 3 days

Q: And the “snoring evaluation results +, percentage of total observation days” value [1, 4]?
A: (33%)

Q: And the “snoring evaluation results −, number of days (snoring not heard or like sleep breath)” value [1, 4]?
A: 4 days

Q: What about the “snoring evaluation results −, percentage of total observation days” value [1, 4] of the same compound?
A: (44%)

Q: What about the “snoring evaluation results ++, number of days (severe snoring)” value [1, 5] of the same compound?
A: 0 days

Q: What about the “snoring evaluation results ++, percentage of total observation days” value [1, 5] of the same compound?
A: (0% a))

Q: What about the “snoring evaluation results +, number of days (medium level snoring)” value [1, 5] of the same compound?
A: 2 days

Q: And the “snoring evaluation results +, percentage of total observation days” value [1, 5]?
A: (25%)

Q: What about the “snoring evaluation results −, number of days (snoring not heard or like sleep breath)” value [1, 5] of the same compound?
A: 6 days

Q: What about the “snoring evaluation results −, percentage of total observation days” value [1, 5] of the same compound?
A: (75%)

Q: What about the “average value of AHI, test recipients of 40 years old or over with BMI exceeding 28” value ([2]; 4 cases, placebo 18.9 (p=0.046)) of the same compound?
A: 10.6

Q: And the “average value of AHI, test recipients of 40 years old or over” value ([2]; 6 cases, entire sleep stage, placebo 17.2 (p=0.062))?
A: 11.5

Q: And the “respiratory disorder (hypopnea or apnea, AHI) in the early stage of sleep” value ([2]; early stage of sleep (3 hours), FIG. 4 right graph)?
A: improved

Q: What about the “average value of AHI, nonrem sleep stage (NREM)” value ([2]; entire sleep stage, 10 male adults, placebo 11.3) of the same compound?
A: 10.8

Q: And the “average value of AHI, entire period (Total) of rem and nonrem sleep stage” value ([2]; entire sleep stage, 10 male adults, placebo 15.0)?
A: 13.4

Q: And the “average value of AHI, rem sleep stage (REM)” value ([2]; entire sleep stage, 10 male adults, placebo 33.5)?
A: 26.8

Q: What about the “SpO2 lowest value during sleep” value [3] of the same compound?
A: 88 ± 1%

Q: What about the “apnea (times/day)” value [3] of the same compound?
A: 11 ± 4 times/day

Q: What about the “apnea (times/hr)” value [3] of the same compound?
A: 1.9 ± 0.9 times/hr

Q: And the “SpO2 decrease (times/day)” value [3, 6]?
A: 14 ± 5 times/day

Q: And the “SpO2 decrease (times/hr)” value [3, 6]?
A: 2.5 ± 1.2 times/hr

Q: Which “effectiveness for the treatment of sleep apnea syndrome” value (sleep apnea syndrome) does the source give for `Nc1nc2ccc(OC(F)(F)F)cc2s1` [riluzole] here?
A: has been confirmed
